Data reported in patent EP1056700B1, “MEDICINAL USES OF PHENYLALKANOLS AND DERIVATES” (ZingoTX Pty Ltd, priority 1997, dated 1999).
Values joined by “and” are separate entries in the source; they are usually repeats but may differ in a detail not shown here. Identical values can stand only once.

Assays:
[1] = Brine shrimp toxicity bioassay; assay type: in vivo; settings: Artemia salina (brine shrimp), in vivo; 24 hours, 2% DMSO
Source text: The brine shrimp assay procedure determines LC50 values of active compounds. Activities of a broad range of known active compounds are manifested as toxicity to brine shrimp (Artemia salina Leach). There are many applications of the assay including analysis of toxic substances, anaesthetics, morphine-like substances and cocarcinogenicity of phorbol esters.
The method for testing solvent toxicity used was basically that reported by J L McLaughlin in Methods of Plant Biochemistry (1991), vol. 6 (K Hostettman, ed.), Academic Press, London, 1-32. DMSO solutions of the substances to be tested were added directly to the vials containing the brine shrimp. As the concentration of DMSO that we wished to use was higher than the recommended 1% v/v testing of the toxicity of the DMSO was therefore necessary. The concentrations of DMSO tested on the shrimp, along with the results from the assay which was done in duplicate are listed below.
Brine shrimp toxicity was assayed, except for some minor modifications, according to the method of McLaughlin et al as reported in Brine Shrimp: A convenient bioassay for active plant constituents, B N Meyer, N R Ferrigni, J E Putnam, L B Jacobsen, D E Nichols and J L McLaughlin in Planta Medica (1982), 45, 31-34 and Crown gall tumours on potato discs and brine shrimp lethality: Two simple bioassays for higher plant screening and fractionation. J L McLaughlin. Methods of Plant Biochemistry (1991), vol. 6 (K Hostettman, ed.), Academic Press, London, 1-32. Ten shrimp were transferred to each of the vials and the volume adjusted to 4.9 mL. Each dose was performed in triplicate, including the control. In quick succession, the appropriate volume of additional DMSO for each dose, required to achieve a final concentration of 2%, was added before the appropriate volume of test solution. The vials were gently mixed and the time noted. After 24 hours, the number of survivors were counted and % mortality was determined. The test compounds were assayed at concentrations of 100 µM, 25 µM, 5 µM, 1 µM and 0.2 µM (and where appropriate concentrations of 0.04 µM and 0.008 µM).
The brine shrimp were able to survive without food in the vials over the 24 hour period and were therefore not fed.
The dose-response curves were constructed using the Sigmaplot computer program and the LC50 value was calculated from the intersection point of the curve and the 50 % mortality line. The LC50 values were expressed in both µM and µg/mL.

[2] = test system: brine shrimp (Artemia salina Leach); settings: values determined by Meyer et al. (1982); cited from earlier work
Lipoxygenase (LP) = target: T1, Lipoxygenase (LP) (Rattus norvegicus, UniProt P12527); experiment: Lipoxygenase assay with cell-free enzyme from RBL 2H3 cells (EIA); assay type: biochemical; settings: final concentration of 10 µM
T1 construct: cell-free enzyme (Wong et al, 1991) prepared from rat basophilic leukemia (RBL) 2H3 cell lines; endogenous in cells; host or cells: RBL 2H3 (rat basophilic leukemia), 15,000 g supernatant of cells disrupted by nitrogen cavitation
T1 sequence (P12527 1-673): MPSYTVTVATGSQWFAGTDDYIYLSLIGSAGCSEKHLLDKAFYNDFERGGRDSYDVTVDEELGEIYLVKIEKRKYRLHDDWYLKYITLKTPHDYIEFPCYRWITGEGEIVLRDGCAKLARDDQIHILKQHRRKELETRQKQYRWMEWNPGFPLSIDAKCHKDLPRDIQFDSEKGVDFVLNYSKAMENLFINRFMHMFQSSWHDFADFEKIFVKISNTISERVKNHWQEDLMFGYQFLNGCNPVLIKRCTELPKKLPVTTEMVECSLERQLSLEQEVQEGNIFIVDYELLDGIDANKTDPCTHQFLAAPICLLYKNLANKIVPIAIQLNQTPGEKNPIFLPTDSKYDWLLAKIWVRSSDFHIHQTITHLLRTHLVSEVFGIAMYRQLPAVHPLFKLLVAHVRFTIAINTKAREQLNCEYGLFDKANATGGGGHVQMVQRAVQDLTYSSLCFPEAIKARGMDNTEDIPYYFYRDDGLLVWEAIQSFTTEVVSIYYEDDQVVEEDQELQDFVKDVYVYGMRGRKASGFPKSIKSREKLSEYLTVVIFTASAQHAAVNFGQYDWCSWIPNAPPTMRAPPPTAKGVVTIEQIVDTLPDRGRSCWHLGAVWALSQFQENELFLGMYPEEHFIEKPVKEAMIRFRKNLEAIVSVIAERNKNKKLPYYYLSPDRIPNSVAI
Description: Lipoxygenase (LP) assay was performed with cell-free enzyme (Wong et al, 1991) prepared from rat basophilic leukemia (RBL) 2H3 cell lines. Cells were cultured in EMEM containing 10% fetal calf serum and antibiotic until cells reached confluence. Harvested cells were resuspended in Hepes (10 mM) buffer, pH 7.4, containing 1 mM EDTA at 1 x 10^7 cells/ml, and disrupted by nitrogen cavitation using a Parr bomb at 750 psi for 15 min. The broken cells were centrifuged at 15,000 g for 30 min. Aliquots (0.1 ml) of the supernatant were preincubated with or without drugs in Hepes buffer (10 mM Hepes, pH 7, 1 mM EDTA and 150 mM NaCl) for 5 min, and the reaction was initiated with the addition of 50 µl of CaCl2 (16 mM), 50 µl of ATP (2 mM), 5 µl of PAF (2.5 mg/ml) and 5 µl of AA (2.5 mM). The reaction mixture ([…]) was incubated at room temperature for a further 8 min, then diluted with EIA buffer at 1/200 and 1/2000 dilutions and stored on ice for EIA following the protocol provided with the kit.
Validation of LP enzyme activity was carried out by a UV spectrophotometric method in which the enzyme activity was characterised against various concentrations of Ca^2+, ATP, PAF and AA with the measurement of the formation of diene conjugated products of LP at 235 nm.
All compounds were dissolved in DMSO and assayed at a final concentration of 10 µM. NDGA was used as reference compound. The concentration of DMSO in the assay was maintained at 1.5%.

Platelet rich plasma = experiment: Platelet aggregation: [^3H]-serotonin release from platelet rich plasma, arachidonic acid initiated; assay type: cell-based; settings: Homo sapiens, activation by EC50 concentration of arachidonic acid
Description: Blood was collected from healthy volunteers who had taken no medication in the previous two weeks. The anticoagulant used was 3.8 % trisodium citrate. Platelet rich plasma was prepared and incubated with [^3H]-serotonin. This was followed by addition of gingerol analogues. Platelet activation was initiated using the EC50 concentration for arachidonic acid. The percentage of [^3H]-serotonin release was measured using a liquid scintillation counter. Then, dose-response curves were established and IC50 values were obtained.

Cyclo-oxygenase (COX) = experiment: Cyclo-oxygenase assay in RBL 2H3 cells (PGD2 EIA); assay type: cell-based, rat; settings: final concentration of 10 µM
Description: Cyclo-oxygenase (COX) assay was performed with cells in culture prepared from rat basophilic leukemia (RBL) 2H3 cell lines. Cells were cultured in EMEM containing 10% fetal calf serum and antibiotic until cells reached confluence. Harvested cells were subsequently seeded on 24-well plates at 1 x 10^6 cells/ml then incubated at 37°C for 3 hours. Cells were washed twice with incubation buffer (1.5 ml) containing 5 mM Hepes, 140 mM NaCl, 5 mM KCl, 0.6 mM MgCl2, 1 mM CaCl2 and […]. Cells were then covered with 0.49 ml of buffer, followed by addition of samples/solvents (0.005 ml) and incubated at 37 °C for 5 min on an orbital shaker. Arachidonic acid (0.005 ml, containing 50% EtOH) was subsequently added, and the plate was incubated at similar conditions for a further 10 min. The supernatant (0.1 ml) was aliquoted for methoxime derivatisation of PGD2, which was carried out by heating the supernatant with methoxime solution (1:1) at 60 °C for 30 min according to the instructions provided with the kit. The resultant solution was diluted with EIA buffer and stored on ice for EIA, following the protocol provided with the kit.
Validation of COX enzyme activity was carried out using EIA in which the enzyme activity was characterised against various concentrations of AA and a time course of enzyme activity.
[…] Indomethacin was used as reference compound. The concentration of DMSO in the assay was maintained at 1.5%.

guinea pig atria = experiment: Organ bath assay on isolated guinea pig atria (rate and force of contraction); settings: result in words, guinea pig atria
Description: Male guinea pigs, 3-4 weeks old, were killed by rapid cervical dislocation without induced anaesthesia. Then, the guinea pigs were dissected to isolate the atria which were immediately mounted vertically in an organ bath containing Krebs-Henseleit solution oxygenated with carbogen.
One gram tension was applied to the atria and the base line continuously adjusted until it was stable for 20 mins. The rate and force of contraction were recorded using Mac Lab equipment.
Test substances in DMSO were assayed to a maximum concentration of 50 µM at a final concentration of 2.5 % of DMSO.

rat mesenteric artery = experiment: Vasodilation on rat mesenteric small arteries
Source text: Small arteries (200-300 µm in diameter) isolated from rat mesentery were precontracted with endothelin prior to addition of the test substances and tested for relaxation.

DRG neuronal cells = experiment: Peak [Ca^2+]i transients in cultured dorsal root ganglion neurons (Fura-2); assay type: cell-based, rat; settings: 10 µM applied for 1 min, 2 mM Ca^2+
Description: DRG from neonatal (3-5 days old) rat or adult Sprague-Dawley rats were incubated in Hanks CMF saline with 0.05% collagenase and 0.25% trypsin for 25 min at 37° C. Individual cells were obtained by trituration with fire polished Pasteur pipettes of diminishing diameters. Neurones were isolated from the cell suspension in 30% Percoll and then plated on collagen coated coverslips or in 24-well plates, then cultured in neurobasal medium with B27 supplement, 50 ng/ml 2.5 S nerve growth factor, 2 mM 1-glutamine and 100 U/ml penicillin/streptomycin. Cultures were maintained at 37° C with 5% CO2. 30% Percoll increases the percentage of capsaicin-sensitive DRG neurones up to 70%. For peak [Ca^2+]i transients measurements, cells on coverslips were incubated with 5 µM Fura-2 AM for 30 min at 37° C. The coverslips were then mounted on a chamber attached to a fast sample application perfusion system which allows changing solutions in the second range. Recordings were made on the stage of a Nikon Diaphot inverted microscope fitted with a Nikon 40 x Fluo (NA 0.85) DL Ph3 or 40 x Fluo (NA 1.3) oil objective. [Ca^2+]i was calculated from dual excitation wavelength (340/380 nm) fluorescence measurements following an intracellular calibration procedure by the Grynkiewicz equation, using MCID M2/M4 v.3.0 (Imaging Res. Inc.) software. Cells were continuously perfused with a solution consisting of 140 mM NaCl, 2 mM CaCl2, 5 mM KCl, 20 mM HEPES, 10 mM glucose, pH 7.4. To study KCl evoked depolarisation, 50 mM NaCl was replaced by equimolar KCl. Cytoplasmic localisation of Fura-2 was tested with the Mn^2+ quenching technique (Dedov and Roufogalis, 1998). All experiments were performed at room temperature (20-23°C).
Typical changes in [Ca^2+]i upon depolarisation were evoked by 50 mM KCl and by application of 1 µM capsaicin; both were applied for 30 sec. Capsaicin-evoked peak [Ca^2+]i transients are characterised by a fast rise and long-steady state [Ca^2+]i clearance from the cytoplasm. In capsaicin-sensitive cells the half-time of cytoplasmic Ca^2+ clearance was proportional to the amplitudes of peak [Ca^2+]i transients.
To examine the effect of gingerol derivatives, one or several compounds in succession at a concentration of 10 µM were applied for 1 min to the DRG neuronal cells followed by washing out for 4 min with physiological solution. To the capsaicin-sensitive cells, 10 µM capsaicin and 50 mM KCl were applied, respectively, to confirm the viability of the cells. In addition, morphological appearances of the cells were also examined at the end of experiment. […]

Compound	activity at 10 µM (Lipoxygenase (LP))	IC50 (Platelet rich plasma)	Cyclooxygenase activity % activity (Cyclo-oxygenase (COX))	Number of capsaicin-sensitive cells responding (DRG neuronal cells)	Peak [Ca^2+]i (Average ±SD) (DRG neuronal cells)	other results
COc1cc([C@@H]2c3cc4c(cc3[C@H](O)[C@H]3COC(=O)[C@H]23)OCO4)cc(OC)c1OC [podophyllotoxin, reference compound]						LC50 at 24 h [1]: 3.8 µM and 1.6 µg/mL; LC50 [2]: 5.8 µM
CCCCCCCCCCC(C)(O)CCc1ccc(O)c(OC)c1 (stereo not drawn) [3-methyl-1-(4-hydroxy-3-methoxyphenyl)tridecan-3-ol]	5%	75.3 ± 3.1 µM				
CCCCCCCCCC(=O)C(O)c1ccc(O)c(OC)c1 (stereo not drawn) [1-hydroxy-1-(4-hydroxy-3-methoxyphenyl)undecan-2-one]	83%	69.4 ± 2.6 µM	16%			
CC(=O)Oc1ccccc1C(=O)O [Aspirin, reference compound]		23.4 ± 1.7 µM				
CCCCCCCCCC(=O)CCc1ccc(O)c(OC)c1 [[8]-paradol, 1-(4-hydroxy-3-methoxyphenyl)dodecan-3-one, reference compound]	81%		11%	1	200 nM	FORCE OF CONTRACT^n (guinea pig atria): inactive; HEART RATE (guinea pig atria): inactive; EC50 (rat mesenteric artery; Rattus norvegicus, relaxation of small arteries (200-300 µm) precontracted with endothelin): 0.05 µM; relaxation of rat mesenteric artery (rat mesenteric artery; result in words): showed potency
CCCCCCCCC(C)(O)CCc1ccc(O)c(OC)c1 (stereo not drawn) [3-methyl-1-(4-hydroxy-3-methoxyphenyl)undecan-3-ol]	3%	45.3 ± 1.6 µM	15%	0 out of 4	0 nM	
